The text below walks through data of patent US10612068B2, “Culture medium containing a spore germination inhibiting or delaying compound” (BIOMERIEUX, priority 2008, dated 2020).

Test [1] concerns Bacillus (Bacillus licheniformis, Bacillus thuringiensis/cereus) present in sporulated form. Briefly: Milk powder samples not contaminated with Staphylococcus aureus incubated in culture medium with or without D-alanine; fluorescence reading and MPN count of nonspecific growth. It counts as cell-based. On the procedure: The example described hereinafter illustrates the inhibiting effect of D-alanine on the […] of microorganisms of Bacillus type (such as Bacillus licheniformis, Bacillus thuringiensis/cereus).
To do this, 59 samples of milk powder products liable to contain Bacillus microorganisms, also not contaminated with Staphylococcus aureus, were tested.
In order to study the inhibiting effect of D-alanine, two culture media were tested:
Medium 1: culture medium without D-alanine,
Medium 2: culture medium in the presence of D-alanine at a final concentration in the medium of between 0.05 and 0.1 mol/l (final concentration in the medium).
The composition of said culture medium is the following (in g/l, final concentration in the medium with or without D-alanine):
The samples were prepared according to ISO standard 8261: 2001 (concerning milk and milk products and relating to the “general guidelines for the preparation of test samples, of the stock suspension and of the decimal dilutions for the purpose of microbiological examination”) according to the following steps: • a) 10 grams of the sample are weighed out and placed in a Stomacher® bag, • b) 90 ml of tryptone salt diluent preheated to 45° C. are added so as to obtain an initial 1/10 dilution of the sample, • c) grinding is carried out using a Stomacher® machine for one minute, • d) the Stomacher® bag is placed in a water bath and stirred for 5 minutes at 45° C., • e) 1 ml of the sample (diluted to 1/10) is taken and placed in 3 ml of culture medium so as to obtain a 1/40 dilution, • f) incubation is carried out for a period of between 24 and 27 hours at a temperature of 37° C., • g) the culture medium is read by fluorescence and the level of contamination of the sample with microorganisms is determined by means of the most probable number technique.
The reading consists of a measurement of the fluorescence of the culture medium obtained after incubation. A large variation in the fluorescence values attests to acidification of the medium, said acidification itself resulting from the growth of one or more microorganisms.
The CV fluorescence values were calculated on the basis of the samples tested (not contaminated with Staphylococcus aureus).
The higher the CV, the greater the acidification of the medium, thereby attesting to growth of the microorganisms present in the culture medium. Conversely, the lower the CV, the less the acidification, thereby reflecting less growth of the microorganisms. The specificity of the medium is therefore better and the risk of false positives is therefore less (false-positive result linked to the acidification of the medium by a bacterium of a microorganism other than Staphylococcus aureus). […]

For test [2], the system named is Bacillus licheniformis spores. Particulars: L-alanine dehydrogenase dependent first step; cited from earlier work.

Regarding `C[C@@H](N)C(=O)O` [D-alanine], the “% of samples with MPN count <10 (good specificity)” value in test [1] (59 milk powder samples, D-alanine 0.05-0.1 mol/l, 24-27 hours at 37° C.) is listed as 89.83%. Moreover, the “rate of false-positive results” value in test [1] (59 milk powder samples, false positives related to growth of Bacillus) was determined as 10.17%. Further, in test [1] (59 milk powder samples, with the use of D-alanine), the “highest false-positive count result” value is ≤ 50 CFU/gram. Moreover, the “effect on CV values obtained after incubation of the medium” value in test [1] (D-alanine in the culture medium vs. medium without) is recorded as “greatly reduce the CV values”. Moreover, the “inhibition of the first step of spore germination” value (from here on “inhibition”) in test [2] is “inhibited”.
Turning to `CCOC(=O)C(C)=O` [ethyl pyruvate], the “inhibition” value in test [2] was “inhibited”.
In the case of `CCCCCCCCO` [octanol], the “inhibition” value in test [2] was “inhibited”.
